Patent publication US20250345277A1, “Ionizable Liposome, Preparation Thereof, and Application Thereof in Gene Delivery” (MAXIRNA (ZHEJIANG) TECHNOLOGY CO. LTD., priority 2021, published 2025)

Legend:
[1] = Size and polydispersity index PDI of lipid nanoparticles (Malvern Zetasizer Nano ZS); type: physicochemical; conditions: LNP ionizable lipid/DOPE/cholesterol/DSPE-PEG2000 35/16/46.5/2.5 mol% encapsulating EGFP mRNA; for Particle Size: in nm (unit assumed)
Summary of the method: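 LNPs of ionizable lipid/DOPE/cholesterol/DSPE-PEG2000 (35/16/46.5/2.5 mol %) encapsulating EGFP mRNA, made by microfluidic mixing (ethanol lipid:citrate pH 6.1 aqueous 1:3 by volume; lipid:mRNA ~10:1 w/w). Buffer-exchanged into DPBS, 0.2 μm filtered. Size and PDI by dynamic light scattering at […] backscatter angle.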

[2] = Entrapment efficiency of LNP preparation encapsulating EGFP mRNA; type: physicochemical; conditions: LNP ionizable lipid/DOPE/cholesterol/DSPE-PEG2000 35/16/46.5/2.5 mol% encapsulating EGFP mRNA
Summary of the method: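 LNPs of ionizable lipid/DOPE/cholesterol/DSPE-PEG2000 (35/16/46.5/2.5 mol %) made by microfluidic mixing of ethanol lipids with EGFP mRNA in 20 mM citrate pH 6.1 (1:3 by volume), lipid:mRNA about 10:1 by weight. Buffer exchanged to DPBS by ultrafiltration, then 0.2 μm filtered; mRNA 0.002–0.5 mg/mL.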

PBMC cells = assay: In vitro transfection of PBMC cells with EGFP mRNA LNP preparation (flow cytometry); type: cell-based; design: Cell Viability: concentration or dose not given beside the values; conditions: for Cell Viability / Positive Rate (EGFP): LNP preparation added with ApoE4; for Fluorescence Intensity: with ApoE4, EGFP mRNA expression level normalized based on the sample with the highest fluorescence intensity
Source text: The description is based on peripheral blood mononuclear cells PBMC (Shanghai Oribiotech Co., Ltd.), human peripheral blood leukemia T cell Jurkat (ATCC), tumor infiltrating lymphocyte TIL (isolated from resected tumor tissue of a liver cancer patient, the preparation method refers to CN114763530A), mouse bone marrow-derived dendritic cells DC2.4 (Cell Bank of the Chinese Academy of Sciences), and Chinese hamster ovary cells CHO (ATCC) were used as verified cell lines for liposome transfection. PBMC, Jurkat, and TIL cells grew in suspension, while DC2.4 and CHO cells grew by adherent culture. All the operation steps of cell culture must strictly abide by the prescribed procedures, and sterile reagents is used to perform aseptic operations under a sterile workbench. The main steps are as follows: • 1) Cell recovery: the preserved cell cryopreservation solution was taken out of the −80° C. refrigerator, and was immediately put in a 37° C. water bath for rapid and continuous shaking, and was completely melted within one minute. Fresh medium was added to the 15 mL centrifuge tube in advance, and the cell solution was added to the centrifuge tube in a biological safety cabinet. A centrifuge tube of the same quality was taken and placed symmetrically in a centrifuge, centrifuged at a low speed at 1200 rpm for 5 min. After centrifugation, the supernatant was removed, and an appropriate amount of medium was slowly added along the tube wall. After the cells were evenly dispersed by blowing gently, the cell suspension was pipette and added to the culture bottle prepared in advance. The state and distribution of the cells in the early stage of recovery were observed under a microscope. The culture bottle was placed in a 5% CO2 incubator and incubated at 37° C., and the recovery time was recorded. • 2) Cell subculture: Under the microscope, if the cell density in the field of view reaches 80%-90%, the cells can be subcultured. Adherent cells need to be digested with trypsin. In order to avoid the residual serum in the culture medium to reduce the activity of trypsin, DPBS solution was added to wash once after removing the original culture medium. After remove the DPBS solution, trypsin was added to degrade the protein at the junction between cells. This separates the cells for further culture. The cells were gently shaked evenly and put into the incubator for digestion for 2 min. Immediately after the digestion was completed, an appropriate amount of medium was added to the original petri dish to terminate the digestion. Finally, the cells were carefully blowed off using a pipette and blowed until they are evenly dispersed, and then inoculated and subcultured at a certain ratio according to the experimental requirements.
• 1) Coating antibodies: 6-well plates were pre-coated, CD3 and CD28 antibodies were taken out from the −20° C. refrigerator, and melted for later use. The above two antibodies were added into the DPBS solution at a concentration of 5 µg/mL, mixed well, added into a six-well plate at 1 mL/well, put in a 37° C. incubator, and waited 4 hours for later use. • 2) PBMC recovery: the frozen PBMC cells were taken out from the −80° C. refrigerator, put in a 37° C. water bath to quickly thaw the cells, added to the preheated medium after thawing, centrifuged at 1200 rpm for 5 min, the supernatant was discarded, and an appropriate amount of AIMN-V medium with 500 U/ml IL-2 was added to resuspend PBMC. • 3) the DPBS coated with the antibody was removed with a pipette, the cell suspension was transferred to a six-well plate pre-coated with the antibody at 4 mL per well, placed in a 5% CO2 incubator at 37° C. for 3-5 days for activation and culture. • 4) According to the experimental arrangement, PBMC cells were plated on a 24-well plate 30 minutes in advance on the day of cell transfection. […]

Row | SMILES | PDI [1] | Particle Size [1] | Entrapment Efficiency [2] [%] | Cell Viability (PBMC cells; PBMCs) [%] | Positive Rate (EGFP) (PBMC cells; PBMCs) [%] | Fluorescence Intensity (PBMC cells; PBMCs) | transfection efficiency (FIG. 2) (PBMC cells; PBMC, in the absence of AopE4) | transfection efficiency (FIG. 3) (PBMC cells; PBMC, with ApoE4) | change of transfection efficiency with ApoE4 (FIG. 3) (PBMC cells; PBMC, with ApoE4 versus without) | cell viability by flow cytometry (FIG. 1) (PBMC cells; PBMCs, after in vitro transfection, ApoE4 did not affect viability)
1 | CCCCCCCCCCC(O)CN(CCN1CCN(CCN(CCN(CC(O)CCCCCCCCCC)CC(O)CCCCCCCCCC)CCN(CC(O)CCCCCCCCCC)CC(O)CCCCCCCCCC)CC1)CC(O)CCCCCCCCCC (stereo not shown) [A-C12] | 0.173 | 91.6 | 89.80 | 89.70 | 73.30 | 0.72 | – | – | – | –
2 | CCCCCCCCCCCCC(O)CN(CCN1CCN(CCN(CCN(CC(O)CCCCCCCCCCCC)CC(O)CCCCCCCCCCCC)CCN(CC(O)CCCCCCCCCCCC)CC(O)CCCCCCCCCCCC)CC1)CC(O)CCCCCCCCCCCC (stereo not shown) [A-C14] | 0.107 | 97.1 | 80.31 | 91.20 | 72.30 | 0.76 | – | – | – | –
3 | CCCCCCCCCCCCCCC(O)CN(CCN1CCN(CCN(CCN(CC(O)CCCCCCCCCCCCCC)CC(O)CCCCCCCCCCCCCC)CCN(CC(O)CCCCCCCCCCCCCC)CC(O)CCCCCCCCCCCCCC)CC1)CC(O)CCCCCCCCCCCCCC (stereo not shown) [A-C16] | 0.183 | 90.8 | 90.30 | 90.00 | 76.30 | 0.81 | – | – | – | –
4 | CCCCCCCCCCCCCCCCC(O)CN(CCN1CCN(CCN(CCN(CC(O)CCCCCCCCCCCCCCCC)CC(O)CCCCCCCCCCCCCCCC)CCN(CC(O)CCCCCCCCCCCCCCCC)CC(O)CCCCCCCCCCCCCCCC)CC1)CC(O)CCCCCCCCCCCCCCCC (stereo not shown) [A-C18] | 0.144 | 96.9 | 90.56 | 85.00 | 81.90 | 0.87 | – | – | – | –
5 | CCCCCCCCCCC(O)CN(CCOCCN(CCOCCN(CC(O)CCCCCCCCCC)CC(O)CCCCCCCCCC)CCN1CCN(CCOCCN(CC(O)CCCCCCCCCC)CC(O)CCCCCCCCCC)CC1)CC(O)CCCCCCCCCC (stereo not shown) [B-C12, 19-(2-(4-(2-(2-(di(2-hydroxydodecyl)amino)ethoxy)ethyl)piperazin-1-yl)ethyl)-13, 15-bis(2-hydroxydodecyl)-16,22-dioxa-13,19,25-triazaheptakadecane-11,27-diol] | 0.147 | 102.9 | 89.93 | 85.00 | 83.00 | 0.81 | – | – | – | –
6 | CCCCCCCCCCCCC(O)CN(CCOCCN(CCOCCN(CC(O)CCCCCCCCCCCC)CC(O)CCCCCCCCCCCC)CCN1CCN(CCOCCN(CC(O)CCCCCCCCCCCC)CC(O)CCCCCCCCCCCC)CC1)CC(O)CCCCCCCCCCCC (stereo not shown) [B-C14] | 0.133 | 90.5 | 95.21 | 90.00 | 85.50 | 1 | low transfection efficiency | over 75% | increased | high viability
7 | CCCCCCCCCCC(O)CN(CCOCCOCCN(CCOCCOCCN(CC(O)CCCCCCCCCC)CC(O)CCCCCCCCCC)CCN1CCN(CCOCCOCCN(CC(O)CCCCCCCCCC)CC(O)CCCCCCCCCC)CC1)CC(O)CCCCCCCCCC (stereo not shown) [C-C12] | 0.070 | 92.5 | 95.24 | 89.30 | 56.50 | 0.41 | – | – | – | –
8 | CCCCCCCCCCC(O)CN(CCOCCOCCOCCN(CCOCCOCCOCCN(CC(O)CCCCCCCCCC)CC(O)CCCCCCCCCC)CCN1CCN(CCOCCOCCOCCN(CC(O)CCCCCCCCCC)CC(O)CCCCCCCCCC)CC1)CC(O)CCCCCCCCCC [D-C12] | 0.073 | 90.5 | 91.80 | 85.60 | 65.60 | 0.27 | – | – | – | –
9 | CCCCCCCCCCCCC(O)CN(CCOCCOCCOCCN(CCOCCOCCOCCN(CC(O)CCCCCCCCCCCC)CC(O)CCCCCCCCCCCC)CCN1CCN(CCOCCOCCOCCN(CC(O)CCCCCCCCCCCC)CC(O)CCCCCCCCCCCC)CC1)CC(O)CCCCCCCCCCCC [D-C14] | 0.168 | 97.2 | 92.36 | 88.70 | 96.70 | 0.25 | – | – | – | –
10 | CCCCCCCCCCCCCCC(O)CN(CCOCCOCCOCCN(CCOCCOCCOCCN(CC(O)CCCCCCCCCCCCCC)CC(O)CCCCCCCCCCCCCC)CCN1CCN(CCOCCOCCOCCN(CC(O)CCCCCCCCCCCCCC)CC(O)CCCCCCCCCCCCCC)CC1)CC(O)CCCCCCCCCCCCCC [D-C16] | 0.117 | 91.6 | 86.56 | 82.20 | 71.70 | 0.32 | – | – | – | –
11 | CCCCCCCCCCCCCCCCC(O)CC(CCOCCOCCOCCN(CCOCCOCCOCCN(CC(O)CCCCCCCCCCCCCCCC)CC(O)CCCCCCCCCCCCCCCC)CCN1CCN(CCOCCOCCOCCN(CC(O)CCCCCCCCCCCCCCCC)CC(O)CCCCCCCCCCCCCCCC)CC1)CC(O)CCCCCCCCCCCCCCCC [D-C18] | 0.105 | 103.0 | 88.54 | 83.30 | 64.40 | 0.41 | – | – | – | –
12 | CCCCCCCCCCCCC(O)CN(CCN(CCN1CCN(C)CC1)CCN(CC(O)CCCCCCCCCCCC)CC(O)CCCCCCCCCCCC)CC(O)CCCCCCCCCCCC (stereo not shown) [E-C14] | 0.119 | 85.2 | 85.62 | 86.50 | 64.60 | 0.12 | – | – | – | –
